Experimental data reported in patent US10548935B2, “Composition and method for preventing, reducing, alleviating or treating idiopathic vomiting” (Mars, Incorporated, priority 2013, dated 2020).

Assays:
NK-1 receptor = biological target: T1, NK-1 receptor (Homo sapiens, UniProt P25103); assay: Tango GPCR cell-based assay, TACR1-bla U2OS cells, NK-1 receptor inhibitors; conditions: 1 nM SAR9 Substance P agonist
T1 construct: host or cells: U2OS (Tango TACR1-bla)
Description: Various known high through-put screening assays can also be used to determine the inhibitory effects of a material on the NK-1 receptors.
One exemplary assay is the Tango™ G-Protein Coupled Receptors (GPCR) cell-based assays by Invitrogen. First, TACR1-bla U2OS cells (from Invitrogen) are cultured in McCoy's medium. The cultured cells are then plated in DMEM into 96-well plates (15,125 cells/well in 90 uL/well). After 16-24 hours, the cells are treated with test materials or positive control antagonist (which is 100 nM Aprepitant) and then incubated for 30-60 minutes at 37° C. in 5% CO2. Subsequently, the cells are treated with 1 nM SAR9 Substance P agonist and incubated again for 5 hours at 37° C. in 5% CO2. The plates are removed from the incubator and equilibrated at room temperature for 15 minutes. During the equilibration step, the LiveBlazer substrate detection solution (from Invitrogen) is prepared. Six times of substrate mixture is added to each well, followed by incubating the plates in the dark at room temp for 2 hours. The plates are read by the Envision microplate reader in 2 channels using the “Geneblazer 451” protocol, which include a blue channel (Excitement at 405 and Emission at 460) and a green channel (Excitement at 405 and Emission at 535).
FIGS. 45-70 show the NK-1 dosage response curves of compounds described hereinabove with high NK-1 inhibitory effect.

T1 sequence (P25103 whole entry): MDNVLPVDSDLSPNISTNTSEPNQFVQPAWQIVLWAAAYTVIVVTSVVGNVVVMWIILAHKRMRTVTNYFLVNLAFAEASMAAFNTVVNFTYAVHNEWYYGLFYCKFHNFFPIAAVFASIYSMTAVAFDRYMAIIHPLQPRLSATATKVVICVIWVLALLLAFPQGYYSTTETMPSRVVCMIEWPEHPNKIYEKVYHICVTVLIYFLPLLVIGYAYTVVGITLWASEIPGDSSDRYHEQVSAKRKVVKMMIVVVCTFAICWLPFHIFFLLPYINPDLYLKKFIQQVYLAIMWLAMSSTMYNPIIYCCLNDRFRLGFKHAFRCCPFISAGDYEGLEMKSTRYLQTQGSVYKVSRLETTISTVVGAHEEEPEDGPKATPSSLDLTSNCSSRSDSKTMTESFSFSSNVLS

| NK-1 receptor inhibitory effect (NK-1 receptor) | Compound | cell toxicity (Cell toxicity) |
| --- | --- | --- |
| surprisingly high | O=c1c(-c2ccc(O)cc2)coc2cc(O)cc(O)c12 [Genistein] | little or no |
| surprisingly high | CC1=CC(=O)c2ccccc2C1=O [Menadione] | little or no |
| surprisingly high | CCCCCCCCCCCCCC[C@@H](O)[C@@H](O)[C@@H](N)CO [Phytosphingosine] | little or no |
| surprisingly high | COc1ccc(/C=C/C=O)cc1 [Trans-4-methoxycinnamaldehyde] | little or no |

The next lines start with the compound.

| Compound | NK-1 receptor inhibitory effect (NK-1 receptor) | cell toxicity (Cell toxicity) |
| --- | --- | --- |
| CC/C=C/C=C/C=O [Trans,trans-2,4-heptadienal] | surprisingly high | little or no |
| CCCC/C=C/C=C/C=O [Trans,trans-2,4-nonadienal] | surprisingly high | little or no |
| CC/C=C\CC/C=C/CO [Trans-2,cis-6-nonadienol] | surprisingly high | little or no |
